Results taken from article PMC11320734 (ACS Pharmacology & Translational Science, 2024).
Where “and” joins values, the source holds several entries; their conditions need not be identical. Equal values may be shown once. Read-outs that look alike come from different tables or passages of the source.

Tests used:
[1] = target: human wild type CB2R (Homo sapiens, UniProt P34972); test: [35S]GTPγS binding assay (G-protein activation); type: biochemical; set-up: host or cells: CHO cells (Pathhunter)
[2] = Rodent single-dose PK studies (summary rats and mice); type: in vivo
Protocol: To characterize the pharmacokinetic behavior of RNB-61, studies in rodents were conducted at the in vivo facility of F. Hoffmann-La Roche Ltd. (Basel, Switzerland). The plasma-concentration time profile was studied in rodents after single-dose RNB-61 administration by oral gavage (p.o. microsuspension excipients 7.5% gelatin/0.62% NaCl) and intravenous bolus injection (i.v. solution, excipients NMP:NaCl (30:70)). Three groups of male Wistar rats (n = 2 per group) were administered RNB-61 either at 1 mg kg^–1 i.v., 3 mg kg^–1 p.o., or 26 mg kg^–1 p.o. Plasma samples were drawn at 0.083, 0.25, 0.5, 1, 2, 4, 8, and 24 postdose in the i.v. group and at 0.25, 0.5, 0.75, 1.5, 3, 5, 8, and 24 h postdose in the p.o. groups. The samples were analyzed for RNB-61 concentration by LC/MS-MS. For the LC/MS-MS analysis, and the samples were prepared by adding 100 uL to 400 uL ACN with ISTD (100 ng/mL Bosantan in ACN/MeOH 1/1), stirring, and centrifuging (4000 rpm, 65’). 100 uL of the supernatant were pipetted and diluted with 400 μL H2O at pH 3. The analytes were separated on a Restek C18 column (5 μm, 1.0 × 3 mm). The mobile phase consisted of water containing 0.1% HCOOH as solvent A and ACN containing 0.1% HCOOH as solvent B. The gradient curve starting with 5% B was changed to 90% B between 0.4 and 0.6 min and further increased to 95% B between 0.6 and 1.2 min. This was maintained until 1.4 min and then reduced and kept at 5% B between 1.45 and 2.0 min. The mass spectrometer was operated in the positive mode. All LC-MS/MS was done using the Agilent RapidFire Analyzer software (version 4.3). The pharmacokinetic parameters were estimated by noncompartmental analysis in the Certara WinNonlin software (version 5.3). A similar study design was run in mice with three groups receiving 2 mg kg^–1 i.v., 4 mg kg^–1 p.o., or 26 mg kg^–1 p.o., and plasma sampling occurring in a composite profile (n = 2 for each time point) up to 7 or 24 h postdose. Male C57/BL6 mice (n = 5 per group) were used to study the influence of P-gp efflux on brain penetration. […]

[3] = Single-dose pharmacokinetics in male Wistar rats; type: in vivo; conditions: rat, plasma
Protocol: To characterize the pharmacokinetic behavior of RNB-61, studies in rodents were conducted at the in vivo facility of F. Hoffmann-La Roche Ltd. (Basel, Switzerland). The plasma-concentration time profile was studied in rodents after single-dose RNB-61 administration by oral gavage (p.o. microsuspension excipients 7.5% gelatin/0.62% NaCl) and intravenous bolus injection (i.v. solution, excipients NMP:NaCl (30:70)). Three groups of male Wistar rats (n = 2 per group) were administered RNB-61 either at 1 mg kg^–1 i.v., 3 mg kg^–1 p.o., or 26 mg kg^–1 p.o. Plasma samples were drawn at 0.083, 0.25, 0.5, 1, 2, 4, 8, and 24 postdose in the i.v. group and at 0.25, 0.5, 0.75, 1.5, 3, 5, 8, and 24 h postdose in the p.o. groups. The samples were analyzed for RNB-61 concentration by LC/MS-MS. For the LC/MS-MS analysis, and the samples were prepared by adding 100 uL to 400 uL ACN with ISTD (100 ng/mL Bosantan in ACN/MeOH 1/1), stirring, and centrifuging (4000 rpm, 65’). 100 uL of the supernatant were pipetted and diluted with 400 μL H2O at pH 3. The analytes were separated on a Restek C18 column (5 μm, 1.0 × 3 mm). The mobile phase consisted of water containing 0.1% HCOOH as solvent A and ACN containing 0.1% HCOOH as solvent B. The gradient curve starting with 5% B was changed to 90% B between 0.4 and 0.6 min and further increased to 95% B between 0.6 and 1.2 min. This was maintained until 1.4 min and then reduced and kept at 5% B between 1.45 and 2.0 min. The mass spectrometer was operated in the positive mode. All LC-MS/MS was done using the Agilent RapidFire Analyzer software (version 4.3). The pharmacokinetic parameters were estimated by noncompartmental analysis in the Certara WinNonlin software (version 5.3). A similar study design was run in mice with three groups receiving 2 mg kg^–1 i.v., 4 mg kg^–1 p.o., or 26 mg kg^–1 p.o., and plasma sampling occurring in a composite profile (n = 2 for each time point) up to 7 or 24 h postdose. Male C57/BL6 mice (n = 5 per group) were used to study the influence of P-gp efflux on brain penetration. Two groups of mice were administered RNB-61 by i.v. bolus injection at 1 mg kg^–1 (2 groups). In order to block P-gp activity, an i.v. bolus of 5 mg kg^–1 tariquidar[46] was injected into one group 30 min prior to RNB-61. Plasma was collected at 0.083, 0.25, 0.5, 2, 4, and 7 h postdose in a composite profile. Brain, CSF, and vitreous body were collected at terminal time points 0.5, 2, 4, and 7 h postdose.

[4] = target: hCB1R (Homo sapiens, UniProt P21554); test: Competition binding assay with [3H]-CP55940, HEK cell membranes; conditions: read-out: Ki hCB1R (binding assay); [3H]-CP55940 competition; mean ± SD
Protocol: Competition and saturation binding assays were performed using the radiolabeled CB1R/CB2R agonist [^3H]-CP55940 (PerkinElmer).
Binding reactions were terminated by vacuum filtration onto 0.5% polyethylenimine presoaked GF/B filter plates (Packard) using a Filtermate cell harvester followed by 6 brief washes with 0.3 mL/well of ice-cold wash buffer. Wash buffer comprising 50 mmol L^–1 Tris- HCl, 5 mmol L^–1 MgCl2, 2.5 mmol L^–1 EDTA, and 0.5% fatty acid-free BSA, pH 7.4. Plates were dried at 50 °C for 1 h and liquid scintillation counting was used to determine levels of bound radiolabel. IC50 values and Hill slopes were determined with a 4-parameter logistic model using ActivityBase (ID Business Solution, Guilford, UK) and pKi values were determined using the Cheng–Prusoff equation as shown below: [drawing 1] where S indicates the concentration of the substrate and Km depicts the affinity constant of the substrate.

[5] = target: COX-2 (Homo sapiens, UniProt P35354); test: Endocannabinoid target profiling: COX-2; type: biochemical
[6] = Microsomal clearance; type: in vitro ADME; conditions: human, human microsomes; Table 1
[7] = Microsomal clearance; type: in vitro ADME; conditions: mouse, mouse microsomes; Table 3
Protocol: The hepatocyte clearance assay was performed as previously described.[39] For mice hepatocytes, the suspension cultures were either freshly prepared by liver perfusion or prepared from cryopreserved hepatocyte batches (pooled C57BL6 mouse hepatocytes were purchased from BioreclamationIVT (NY, USA)). For human hepatocytes, commercially available, pooled (5–20 donors), cryopreserved samples from nontransplantable liver tissues were used. For the suspension cultures, Nunc U96 PP-0.5 mL (Nunc Natural, 267245) plates were used, which were incubated in a Thermo Forma incubator from Fischer Scientific (Wohlen, Switzerland) equipped with shakers from Variomag Teleshake (Sterico, Wangen, Switzerland) for maintaining cell dispersion. The cell culture medium was William’s media supplemented with glutamine, antibiotics (100 IU/mL Penicillin-Streptomycin, Gibco), insulin, dexamethasone, and 10% fetal calf serum (FCS). Incubations of a test compound at 1 μM test concentration in suspension cultures of 1 × 10^6 cells mL^–1 (∼1 μg μL^–1 protein concentration) were performed in 96-well plates and shaken at 900 rpm for up to 2 h in a 5% CO2 atmosphere at 37 °C. After 3, 6, 10, 20, 40, 60, and 120 min, a 100 μL cell suspension in each well was quenched with 200 μL methanol containing an internal standard. Samples were then cooled and centrifuged before analysis by LC-MS/MS. […]

[8] = expressed as percentage, compared with CP55,940

Sequence of human wild type CB2R (P34972 whole entry): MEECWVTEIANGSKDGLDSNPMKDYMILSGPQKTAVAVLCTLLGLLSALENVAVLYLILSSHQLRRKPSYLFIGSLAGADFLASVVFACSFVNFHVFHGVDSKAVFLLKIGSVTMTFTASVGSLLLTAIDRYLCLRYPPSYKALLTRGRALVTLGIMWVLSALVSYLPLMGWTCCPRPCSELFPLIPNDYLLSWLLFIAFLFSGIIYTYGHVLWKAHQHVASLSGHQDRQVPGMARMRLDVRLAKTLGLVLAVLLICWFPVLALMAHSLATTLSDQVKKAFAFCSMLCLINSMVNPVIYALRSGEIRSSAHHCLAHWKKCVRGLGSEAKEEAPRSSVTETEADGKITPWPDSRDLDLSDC
Sequence of COX-2 (P35354 18-604): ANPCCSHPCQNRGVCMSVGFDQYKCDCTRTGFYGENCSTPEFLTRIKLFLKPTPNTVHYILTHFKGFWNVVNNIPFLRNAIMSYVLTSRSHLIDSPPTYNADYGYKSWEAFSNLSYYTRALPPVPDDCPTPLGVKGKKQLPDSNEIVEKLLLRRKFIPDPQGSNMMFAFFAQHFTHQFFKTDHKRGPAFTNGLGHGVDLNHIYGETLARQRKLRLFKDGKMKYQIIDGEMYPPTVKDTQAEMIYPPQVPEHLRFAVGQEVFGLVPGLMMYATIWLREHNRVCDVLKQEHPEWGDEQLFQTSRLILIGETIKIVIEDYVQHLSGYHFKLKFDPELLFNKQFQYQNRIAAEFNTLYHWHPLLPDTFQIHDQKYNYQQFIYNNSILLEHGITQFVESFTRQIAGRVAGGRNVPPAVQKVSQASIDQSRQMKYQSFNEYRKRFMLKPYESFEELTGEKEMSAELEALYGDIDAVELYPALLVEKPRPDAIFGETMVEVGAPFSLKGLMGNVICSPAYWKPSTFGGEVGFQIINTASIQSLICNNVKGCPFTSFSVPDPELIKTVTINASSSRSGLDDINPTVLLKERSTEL
Sequence of hCB1R (P21554 whole entry): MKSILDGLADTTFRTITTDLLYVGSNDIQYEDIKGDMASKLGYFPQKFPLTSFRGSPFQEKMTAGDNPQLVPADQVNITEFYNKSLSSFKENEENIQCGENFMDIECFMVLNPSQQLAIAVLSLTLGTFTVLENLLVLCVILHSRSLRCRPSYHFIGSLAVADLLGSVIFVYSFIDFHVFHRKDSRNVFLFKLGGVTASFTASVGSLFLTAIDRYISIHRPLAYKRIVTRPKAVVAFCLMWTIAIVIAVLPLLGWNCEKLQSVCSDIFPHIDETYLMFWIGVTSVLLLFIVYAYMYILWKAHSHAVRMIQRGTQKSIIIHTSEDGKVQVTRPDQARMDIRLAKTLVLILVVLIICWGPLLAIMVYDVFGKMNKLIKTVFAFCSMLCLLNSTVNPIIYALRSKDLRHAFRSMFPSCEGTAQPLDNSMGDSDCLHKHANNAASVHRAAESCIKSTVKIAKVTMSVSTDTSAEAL

Cn1c(C(C)(C)C)cc(=NC(=O)c2cc(C(F)(F)F)ccc2OCC(C)(C)O)n1CC1CCC1 [RNB-61]
EC50 ([1]; Figure 2): 0.33 nM and 1.65 nM
Emax [1, 8]: 100%
Emax [35S]GTPγS binding [1, 8]: same efficacy (Emax) as CP55,940
Vd ([2]; Wistar (rats), mouse strain not stated for this study, rat, mouse, plasma, intravenous, range rats and mice, read-out: volume of distribution at steady state (Vss)): 1.6 to 2.4 L/kg
half-life ([2]; Wistar (rats), mouse strain not stated for this study, rat, mouse, plasma, in rats and mice, read-out: terminal plasma half-life): 4 to 8 h
plasma clearance as share of hepatic blood flow ([2]; rodent single-dose PK): ~5 % of hepatic blood flow
AUC(0-inf) ([3]; iv, 1 mg kg^–1 i.v.): 5170 ng·h/mL
Tmax ([3]; iv, 1 mg kg^–1 i.v.): 0.083 h
clearance ([3]; iv, 1 mg kg^–1 i.v.): 3.5 mL/min/kg
half-life ([3]; iv, 1 mg kg^–1 i.v.): 6 h
Cmax ([3]; iv, 1 mg kg^–1 i.v., read-out: Cmax): 619 ng/mL
Cmax ([3]; iv, 1 mg kg^–1 i.v., read-out: Cmax (molar)): 1280 nM
Vd ([3]; iv, 1 mg kg^–1 i.v., read-out: Vss): 1.6 L/kg
AUC(0-inf) ([3]; po, 3 mg kg^–1 p.o.): 7410 ng·h/mL
Tmax ([3]; po, 3 mg kg^–1 p.o.): 5.5 h
bioavailability ([3]; po, 3 mg kg^–1 p.o.): 48%
half-life ([3]; po, 3 mg kg^–1 p.o.): 7.1 h
Cmax ([3]; po, 3 mg kg^–1 p.o., read-out: Cmax): 446 ng/mL
Cmax ([3]; po, 3 mg kg^–1 p.o., read-out: Cmax (molar)): 926 nM
AUC(0-inf) ([3]; po, 26 mg kg^–1 p.o.): 117000 ng·h/mL
Tmax ([3]; po, 26 mg kg^–1 p.o.): 3 h
bioavailability ([3]; po, 26 mg kg^–1 p.o.): 87%
half-life ([3]; po, 26 mg kg^–1 p.o.): 49 h
Cmax ([3]; po, 26 mg kg^–1 p.o., read-out: Cmax): 1710 ng/mL
Cmax ([3]; po, 26 mg kg^–1 p.o., read-out: Cmax (molar)): 3500 nM
Ki [4]: 3880 ± 73.4 nM
IC50 ([5]; Table S1, read-out: COX-2 (Ki, IC50)): > 10000 nM
inhibition of EC oxygenation (COX-2) ([5]; screening concentration 10 μM): did not inhibit
microsomal CLint [6]: ≤ 10 µL/min/mg
microsomal CLint [7]: ≤ 10 µL/min/mg
